Biological target: T1, LXRβ (Homo sapiens, UniProt P55055)
T1 construct: Co-transfection expression plasmids, comprising full-length LXRα (pCMX-h LXRα[…] or LXRβ (pCMX-hLXRβ)); expressed in transfected cells; host or cells: CV-1 African Green Monkey Kidney Cells
T1 sequence (P55055 1-460): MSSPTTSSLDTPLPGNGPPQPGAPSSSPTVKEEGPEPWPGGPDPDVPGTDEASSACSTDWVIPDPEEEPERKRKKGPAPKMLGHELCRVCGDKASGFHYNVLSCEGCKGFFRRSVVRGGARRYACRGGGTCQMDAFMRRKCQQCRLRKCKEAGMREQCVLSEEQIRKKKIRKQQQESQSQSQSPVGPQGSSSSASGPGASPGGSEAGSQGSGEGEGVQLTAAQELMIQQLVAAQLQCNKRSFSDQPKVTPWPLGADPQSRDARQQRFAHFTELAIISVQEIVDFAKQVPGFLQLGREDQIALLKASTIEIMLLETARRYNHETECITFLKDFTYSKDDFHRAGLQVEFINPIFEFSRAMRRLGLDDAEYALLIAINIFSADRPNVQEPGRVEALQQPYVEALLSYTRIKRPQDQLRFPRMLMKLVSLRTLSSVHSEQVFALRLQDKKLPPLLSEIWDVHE
T1 sequence (P19793 1-462 partner): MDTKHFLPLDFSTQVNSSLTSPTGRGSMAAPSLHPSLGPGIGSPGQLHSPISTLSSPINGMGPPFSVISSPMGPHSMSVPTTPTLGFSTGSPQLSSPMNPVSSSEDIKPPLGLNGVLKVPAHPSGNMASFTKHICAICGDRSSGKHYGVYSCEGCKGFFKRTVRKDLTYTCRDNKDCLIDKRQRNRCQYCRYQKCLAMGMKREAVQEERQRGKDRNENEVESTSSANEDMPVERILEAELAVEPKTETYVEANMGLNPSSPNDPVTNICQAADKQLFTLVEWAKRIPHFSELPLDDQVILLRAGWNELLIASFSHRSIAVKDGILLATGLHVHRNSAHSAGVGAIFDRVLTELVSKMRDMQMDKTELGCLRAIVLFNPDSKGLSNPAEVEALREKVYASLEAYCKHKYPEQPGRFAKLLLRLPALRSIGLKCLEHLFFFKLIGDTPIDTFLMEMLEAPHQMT
Test: Co-transfection assay (LXRE luciferase reporter), LXRβ
Assay type: cell-based
Conditions: for EC50: CV-1 cells transfected with pCMX-hLXRβ and LXREx1-Tk-Luciferase, 20 hours incubation; for Emax: LXRβ co-transfection, relative to high control 1-(2,4-difluorobenzyl)-2-oxo-6-(4-phenoxyphenyl)-4-(trifluoromethyl)-1,2-dihydropyridine-3-carbonitrile, read-out: % Efficacy
Summary of the method: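 Luciferase signal from an LXREx1-Tk reporter was measured after transfected CV-1 cells (full-length hLXRβ, endogenous RXR) were treated with compounds for 20 h at 37 °C, ≤0.5% DMSO. EC50 came from four-parameter fits of 11-point ½-log curves; % efficacy versus a reference agonist maximum.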

| SMILES | EC50 | Emax |
| --- | --- | --- |
| Cc1nc(C(F)(F)F)cn1-c1ccc(-c2cccc(C(C)(C)C(N)=O)c2)cc1-c1cnnn1-c1ccc(OC(F)(F)F)cc1 [Example 241, 2-methyl-2-{4′-[2-methyl-4-(trifluoromethyl)-1H-imidazol-1-yl]-3′-(1-{4-[(trifluoromethyl)oxy]phenyl}-1H-1,2,3-triazol-5-yl)biphenyl-3-yl}propanamide] | 0.405 µM | 111% |
| Cc1cn(-c2ccc(-c3cc(F)c(CO)c(S(C)(=O)=O)c3)cc2-n2nncc2-c2ccc(OC(F)(F)F)cc2)c(C)n1 [Example 84, [4′-(2,4-dimethyl-1H-imidazol-1-yl)-3-fluoro-5-(methylsulfonyl)-3′-(5-{4-[(trifluoromethyl)oxy]phenyl)-1H-1,2,3-triazol-1-yl)biphenyl-4-yl]methanol] | 0.852 µM | 96% |
| Cc1nc(C(F)(F)F)cn1-c1ccc(-c2cc(F)c(CO)c(S(C)(=O)=O)c2)cc1-c1nc(CC(C)O)oc1-c1ccc(OC(F)(F)F)cc1 (centres unmarked) [Example 534, 1-(4-(3′-fluoro-4′-(hydroxymethyl)-4-(2-methyl-4-(trifluoromethyl)-1H-imidazol-1-yl)-5′-(methylsulfonyl)-[1,1′-biphenyl]-3-yl)-5-(4-(trifluoromethoxy)phenyl)oxazol-2-yl)propan-2-ol] | 0.197 µM | 55% |
| CCC(F)(F)c1cn(-c2ccc(-c3cccc(S(C)(=O)=O)c3)cc2-n2nncc2-c2ccc(OC(F)(F)F)cc2)c(C)n1 [Example 184, 1-{4-[4-(1,1-difluoropropyl)-2-methyl-1H-imidazol-1-yl]-3′-(methylsulfonyl)biphenyl-3-yl}-5-{4-[(trifluoromethyl)oxy]phenyl}-1H-1,2,3-triazole] | 0.337 µM | 86% |
| Cc1ccc(-c2oc(C)nc2-c2cc(-c3cc(F)c(CO)c(S(C)(=O)=O)c3)ccc2-n2cc(C(F)(F)F)nc2C)cc1 [Example 492, (3-fluoro-4′-(2-methyl-4-(trifluoromethyl)-1H-imidazol-1-yl)-3′-(2-methyl-5-p-tolyloxazol-4-yl)-5-(methylsulfonyl)biphenyl-4-yl)methanol] | 0.034 µM | 64% |
| Cc1nc(-c2cc(-c3cccc(S(C)(=O)=O)c3)ccc2-n2cc(C(F)(F)F)nc2C)c(-c2cc(F)cc(Cl)c2)o1 [Example 449, 5-(3-chloro-5-fluorophenyl)-2-methyl-4-(4-(2-methyl-4-(trifluoromethyl)-1H-imidazol-1-yl)-3′-(methylsulfonyl)biphenyl-3-yl)oxazole] | 0.183 µM | 57% |
| Cc1nc(-c2cc(-c3ccc(C)c(S(C)(=O)=O)c3)ccc2-n2cc(C(F)(F)F)nc2C)c(-c2cc(F)c(OC(F)F)c(F)c2)o1 [Example 470, 5-(4-(difluoromethoxy)-3,5-difluorophenyl)-2-methyl-4-(4′-methyl-4-(2-methyl-4-(trifluoromethyl)-1H-imidazol-1-yl)-3′-(methylsulfonyl)biphenyl-3-yl)oxazole] | 0.109 µM | 56% |
| COCCc1nc(-c2cc(-c3cccc(S(C)(=O)=O)c3)ccc2-n2cc(C(F)(F)F)nc2C)c(-c2ccc(OC(F)(F)F)cc2)o1 [Example 564, 2-(2-methoxyethyl)-4-(4-(2-methyl-4-(trifluoromethyl)-1H-imidazol-1-yl)-3′-(methylsulfonyl)-[1,1′-biphenyl]-3-yl)-5-(4-(trifluoromethoxy)phenyl)oxazole] | 0.164 µM | 57% |
| Cc1nc(C(F)(F)F)cn1-c1ccc(-c2cccc(S(C)(=O)=O)c2)cc1-c1nc(CC(=O)O)oc1-c1ccc(OC(F)(F)F)cc1 [Example 537, 2-(4-(4-(2-methyl-4-(trifluoromethyl)-1H-imidazol-1-yl)-3′-(methylsulfonyl)-[1,1′-biphenyl]-3-yl)-5-(4-(trifluoromethoxy)phenyl)oxazol-2-yl)acetic acid] | 0.661 µM | 100% |
| Cc1nc(C(F)(F)F)cn1-c1ccc(-c2cccc(S(C)(=O)=O)c2)cc1-n1nncc1-c1ccc(OCC(F)(F)F)cc1 [Example 31, 1-{3′-(methylsulfonyl)-4-[2-methyl-4-(trifluoromethyl)-1H-imidazol-1-yl]biphenyl-3-yl}-5-{4-[(2,2,2-trifluoroethyl)oxy]phenyl}-1H-1,2,3-triazole] | 0.606 µM | 90% |
| Cc1nc(C(F)F)cn1-c1ccc(-c2cccc(S(C)(=O)=O)c2)cc1-n1nncc1-c1ccc(OC(F)(F)F)c(F)c1 [Example 169, 1-{4-[4-(difluoromethyl)-2-methyl-1H-imidazol-1-yl]-3′-(methylsulfonyl)biphenyl-3-yl}-5-{3-fluoro-4-[(trifluoromethyl)oxy]phenyl}-1H-1,2,3-triazole] | 0.57 µM | 93% |
| Cc1nc(C(F)(F)F)cn1-c1ccc(-c2cc(F)c(CO)c(S(C)(=O)=O)c2)cc1-n1nncc1Cc1cccc(Cl)c1 [Example 120, (3′-{5-[(3-chlorophenyl)methyl]-1H-1,2,3-triazol-1-yl}-3-fluoro-5-(methylsulfonyl)-4′-[2-methyl-4-(trifluoromethyl)-1H-imidazol-1-yl]biphenyl-4-yl)methanol] | 0.795 µM | 91% |
| Cc1nc(C(F)(F)F)cn1-c1ccc(-c2ccc(CO)c(S(C)(=O)=O)c2)cc1-c1ccnn1-c1ccc2c(c1)OC(F)(F)O2 [Example 295, (3′-(1-(2,2-difluorobenzo[d][1,3]dioxol-5-yl)-1H-pyrazol-5-yl)-4′-(2-methyl-4-(trifluoromethyl)-1H-imidazol-1-yl)-3-(methylsulfonyl)biphenyl-4-yl)methanol] | 0.04 µM | 80% |
| CCC(F)(F)c1cn(-c2ccc(-c3cccc(S(C)(=O)=O)c3)cc2-c2ocnc2-c2ccc(OC(F)(F)F)cc2)c(C)n1 [Example 364, 5-{4-[4-(1,1-difluoropropyl)-2-methyl-1H-imidazol-1-yl]-3′-(methylsulfonyl)biphenyl-3-yl}-4-{4-[(trifluoromethyl)oxy]phenyl}-1,3-oxazole] | 0.41 µM | 55% |
| Cc1nc(C(F)(F)F)cn1-c1ccc(-c2cc(F)cc(S(C)(=O)=O)c2)cc1-n1nncc1-c1ccc(OC(F)(F)F)cc1 [Example 91, 1-{3′-fluoro-5′-(methylsulfonyl)-4-[2-methyl-4-(trifluoromethyl)-1H-imidazol-1-yl]biphenyl-3-yl}-5-{4-[(trifluoromethyl)oxy]phenyl}-1H-1,2,3-triazole] | 0.484 µM | 109% |
| Cc1nc(C(F)F)cn1-c1ccc(-c2cccc(S(=O)(=O)N(C)C)c2)cc1-n1nncc1C(C)c1ccc(Cl)cc1 (centres unmarked) [Example 132, 3′-{5-[1-(4-chlorophenyl)ethyl]-1H-1,2,3-triazol-1-yl}-4′-[4-(difluoromethyl)-2-methyl-1H-imidazol-1-yl]-N,N-dimethylbiphenyl-3-sulfonamide] | 0.431 µM | 61% |
| Cc1nc(Cl)c(Cl)n1-c1ccc(-c2cccc(S(C)(=O)=O)c2)cc1-n1nncc1-c1ccc(OC(F)(F)F)cc1 [Example 151, 1-[4-(4,5-dichloro-2-methyl-1H-imidazol-1-yl)-3′-(methylsulfonyl)biphenyl-3-yl]-5-{4-[(trifluoromethyl)oxy]phenyl}-1H-1,2,3-triazole] | 0.214 µM | 148% |
| Cc1nc(C(F)F)cn1-c1ccc(-c2cc(Cl)c(CO)c(S(C)(=O)=O)c2)cc1-n1nncc1-c1ccc(OC(F)(F)F)cc1 [Example 158, {3-chloro-4′-[4-(difluoromethyl)-2-methyl-1H-imidazol-1-yl]-5-(methylsulfonyl)-3′-(5-{4-[(trifluoromethyl)oxy]phenyl}-1H-1,2,3-triazol-1-yl)biphenyl-4-yl}methanol] | 1.41 µM | 88% |
| Cc1nc(C(F)(F)F)cn1-c1ccc(-c2cccc(S(C)(=O)=O)c2)cc1-c1nc(CN(C)C)oc1-c1ccc(OC(F)(F)F)cc1 [Example 538, N,N-dimethyl-1-(4-(4-(2-methyl-4-(trifluoromethyl)-1H-imidazol-1-yl)-3′-(methylsulfonyl)-[1,1′-biphenyl]-3-yl)-5-(4-(trifluoromethoxy)phenyl)oxazol-2-yl)methanamine] | 0.205 µM | 79% |

Source: patent publication US9834542B2, “LXR modulators” (BRISTOL-MYERS SQUIBB COMPANY, priority 2013, dated 2017)
